In ChEMBL document CHEMBL5143706, “2-Alkyl substituted benzimidazoles as a new class of selective AT2 receptor ligands” (Bioorg Med Chem, 2022):

Legend:
[1] = target: T1, Type-1 angiotensin II receptor (Homo sapiens, UniProt P30556); experiment: Displacement of [125-I]-[Sar1Ile8]-angiotensin II from human AT1R expressed in HEK293 cell membrane assessed as inhibition constant by radioligand binding assay; format: cell membranes
T1 sequence (P30556 whole entry): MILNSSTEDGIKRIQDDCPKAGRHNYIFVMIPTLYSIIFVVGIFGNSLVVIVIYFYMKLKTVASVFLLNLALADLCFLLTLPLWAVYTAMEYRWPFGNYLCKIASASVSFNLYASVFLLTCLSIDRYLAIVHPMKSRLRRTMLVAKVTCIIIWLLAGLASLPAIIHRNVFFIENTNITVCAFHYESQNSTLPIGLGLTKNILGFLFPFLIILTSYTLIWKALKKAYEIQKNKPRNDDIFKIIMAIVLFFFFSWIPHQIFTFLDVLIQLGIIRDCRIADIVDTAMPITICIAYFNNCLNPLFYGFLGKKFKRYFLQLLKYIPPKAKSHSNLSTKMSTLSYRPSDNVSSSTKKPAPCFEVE

[2] = target: T2, Type-2 angiotensin II receptor (Homo sapiens, UniProt P50052); experiment: Displacement of [125-I]-[Sar1Ile8]-angiotensin II from human AT2R expressed in HEK293 cell membrane assessed as inhibition constant by radioligand binding assay; format: cell membranes
T2 sequence (P50052 whole entry): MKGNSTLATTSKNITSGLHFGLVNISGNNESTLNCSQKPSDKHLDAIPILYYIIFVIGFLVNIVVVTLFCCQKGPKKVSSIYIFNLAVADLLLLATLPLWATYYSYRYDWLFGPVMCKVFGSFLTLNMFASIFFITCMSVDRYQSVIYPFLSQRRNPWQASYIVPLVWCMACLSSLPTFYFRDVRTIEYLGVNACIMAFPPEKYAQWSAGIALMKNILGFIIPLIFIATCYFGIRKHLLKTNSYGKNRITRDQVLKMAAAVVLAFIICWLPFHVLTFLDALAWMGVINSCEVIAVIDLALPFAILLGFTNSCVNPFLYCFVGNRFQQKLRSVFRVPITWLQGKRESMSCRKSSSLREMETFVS

[3] = Metabolic stability in human liver microsomes assessed as half life at 1 uM preincubated for 5 mins followed by NADPH addition and measured upto 60 mins by HPLC-MS/MS analysis; format: ADME, Microsome; conditions: time < 65 min
[4] = Metabolic stability in Sprague-Dawley rat liver microsomes assessed as half life at 1 uM preincubated for 5 mins followed by NADPH addition and measured upto 60 mins by HPLC-MS/MS analysis; format: ADME, Microsome
[5] = Metabolic stability in CD-1 mouse liver microsomes assessed as half life at 1 uM preincubated for 5 mins followed by NADPH addition and measured upto 60 mins by HPLC-MS/MS analysis; format: ADME, Microsome; conditions: time < 65 min
Homo sapiens = organism: Homo sapiens; experiment: Selectivity index, ratio of Ki for displacement of [125-I]-[Sar1Ile8]-angiotensin II from human AT2R expressed in HEK293 cell membrane to Ki for displacement of [125-I]-[Sar1Ile8]-angiotensin II from human AT1R expressed in HEK293 cell membrane; format: cell membranes
[6] = Displacement of [125-I]-angiotensin II from AT2R in pig myometrial membrane assessed as inhibition constant incubated for 1.5 hrs by gamma counter analysis; format: cell membranes, Sus scrofa, Myometrium

Compound | Ki [1] [nM] | Ki [2] [nM] | half-life at 1 µM [3] [min] | half-life at 1 µM [4] [min] | half-life at 1 µM [5] [min] | Ki [6] [nM] | Ratio Ki (Homo sapiens)
CCCCOC(=O)NS(=O)(=O)c1ccc(CCC)cc1-c1cc(F)c(Cn2c(C(C)(C)C)nc3ccccc32)c(F)c1 | > 3000 | 11 | – | – | – | – | –
CCCc1ccc(S(=O)(=O)NC(=O)OCCCC(F)(F)F)c(-c2cc(F)c(Cn3c(C(C)(C)C)nc4ccccc43)c(F)c2)c1 | > 3000 | 12 | 15 | 16 | 6 | – | –
CCCCOC(=O)NS(=O)(=O)c1ccc(CCC)cc1-c1ccc(Cn2c(-c3nccs3)nc3ccccc32)cc1 | > 3000 | 5.1 | 21 | 16 | 5 | – | –
CCCCOC(=O)NS(=O)(=O)c1ccc(CCC)cc1-c1ccc(Cn2c(Cc3ccccc3)nc3ccccc32)cc1 | > 3000 | 15 | – | – | – | – | –
CCCc1ccc(S(=O)(=O)NC(=O)OCCC(F)(F)C(F)(F)F)c(-c2ccc(Cn3c(C(C)(C)C)nc4ccccc43)cc2)c1 | > 3000 | 6 | – | – | – | – | –
CCCCOC(=O)NS(=O)(=O)c1ccc(CCC)cc1-c1ccc(Cn2c(C3CCCCC3)nc3ccccc32)cc1 | > 3000 | 130 | – | – | – | – | –
CCCCOC(=O)NS(=O)(=O)c1ccc(CCC)cc1-c1ccc(Cn2c(C34CC5CC(CC(C5)C3)C4)nc3ccccc32)cc1 | > 3000 | 460 | – | – | – | – | –
CCCc1ccc(S(=O)(=O)NC(=O)OCCCC(F)(F)F)c(-c2ccc(Cn3c(C(C)(C)C)nc4ccccc43)cc2)c1 | > 3000 | 4.5 | 20 | 21 | 6 | – | –
CCCCOC(=O)NS(=O)(=O)c1sc(CC(C)C)cc1-c1ccc(Cn2ccnc2)cc1 [BULOXIBUTID] | – | – | – | – | – | 0.4 | –
CCCCOC(=O)NS(=O)(=O)c1ccc(CCC)cc1-c1ccc(Cn2c(CC(C)C)nc3ccccc32)cc1 | > 3000 | 19 | – | – | – | – | –
CCCCOC(=O)NS(=O)(=O)c1ccc(CCC)cc1-c1ccc(Cn2c(C(F)(F)F)nc3ccccc32)cc1 | > 1000 | 13 | 10 | 7 | 4 | – | –

Continued, in another order:

Ki [1] [nM] | Ki [2] [nM] | half-life at 1 µM [3] [min] | half-life at 1 µM [4] [min] | half-life at 1 µM [5] [min] | Ki [6] [nM] | Compound | Ratio Ki (Homo sapiens)
620 | 9.4 | 10 | 6 | 4 | – | CCCCOC(=O)NS(=O)(=O)c1ccc(CCC)cc1-c1ccc(Cn2c(C)nc3ccccc32)cc1 | –
180 | 9.2 | – | – | – | – | CCCCOC(=O)NS(=O)(=O)c1ccc(CCC)cc1-c1ccc(Cn2c(CCCC)nc3ccccc32)cc1 | –
> 1000 | 590 | – | – | – | – | CCCCOC(=O)NS(=O)(=O)c1ccc(CCC)cc1-c1ccc(Cn2c(-c3ccccc3)nc3ccccc32)cc1 | –
390 | 4 | – | – | – | – | CCCCOC(=O)NS(=O)(=O)c1ccc(CCC)cc1-c1ccc(Cn2c(C(C)C)nc3ccccc32)cc1 | 100
410 | 35 | – | – | – | – | CCCCOC(=O)NS(=O)(=O)c1ccc(CCC)cc1-c1ccc(Cn2c(C3CCCC3)nc3ccccc32)cc1 | 10
710 | 11 | – | – | – | – | CCCCOC(=O)NS(=O)(=O)c1ccc(CCC)cc1-c1ccc(Cn2c(CC)nc3ccccc32)cc1 | –
> 1000 | 29 | 10 | 5 | 5 | – | CCCCOC(=O)NS(=O)(=O)c1ccc(CCC)cc1-c1ccc(Cn2cnc3ccccc32)cc1 | –
400 | 12 | – | – | – | – | CCCCOC(=O)NS(=O)(=O)c1ccc(CCC)cc1-c1ccc(Cn2c(C3CCC3)nc3ccccc32)cc1 | –
460 | 14 | – | – | – | – | CCCCOC(=O)NS(=O)(=O)c1ccc(CCC)cc1-c1ccc(Cn2c(CCC)nc3ccccc32)cc1 | –
> 1000 | 5.3 | 12 | 20 | 7 | – | CCCCOC(=O)NS(=O)(=O)c1ccc(CCC)cc1-c1ccc(Cn2c(C(C)(C)C)nc3ccccc32)cc1 | –
710 | 31 | – | – | – | – | CCCCOC(=O)NS(=O)(=O)c1ccc(CCC)cc1-c1ccc(Cn2c(C3CC3)nc3ccccc32)cc1 | –
